Patent publication US4780238A (priority 1985, dated 1988)

Test system: P. aeruginosa
Type: cell-based, Pseudomonas aeruginosa

SMILES	inhibitory effect on growth	lag period of the organism
O=[N+]([O-])[O-].O=[N+]([O-])[O-].[O]=[U+2]=[O] [uranyl nitrate]	stronger inhibitory effect on growth of the organism than thorium	
O=[N+]([O-])[O-].O=[N+]([O-])[O-].O=[N+]([O-])[O-].O=[N+]([O-])[O-].[Th+4] [Th(NO3)4, thorium nitrate]		the lag period of the organism also increased
